Results on 8 molecules are retold here after patent publication US20170260185A1 (priority 2014, published 2017).

The target of test [1] is T1, human norepinephrine transporter (NET) (Homo sapiens, UniProt P23975).
T1 construct: expressed in transfected cells; host or cells: CHO (hNET-CHO), membrane preparation
Nature of the test: Scintillation Proximity Assay (SPA) competition binding, [3H]nisoxetine, hNET-CHO membranes. A general note: Scintillation proximity formats need no separation of bound from free tracer.

In test [2] the target is human ERG potassium channel (hERG) (Homo sapiens, UniProt Q12809). Nature of the test: cell-based. The protocol: Measure of the Effect on hERG Channel by Tail Current Recording Using In Vitro Rapid ICE™
Sequence of human ERG potassium channel (hERG) (Q12809 whole entry): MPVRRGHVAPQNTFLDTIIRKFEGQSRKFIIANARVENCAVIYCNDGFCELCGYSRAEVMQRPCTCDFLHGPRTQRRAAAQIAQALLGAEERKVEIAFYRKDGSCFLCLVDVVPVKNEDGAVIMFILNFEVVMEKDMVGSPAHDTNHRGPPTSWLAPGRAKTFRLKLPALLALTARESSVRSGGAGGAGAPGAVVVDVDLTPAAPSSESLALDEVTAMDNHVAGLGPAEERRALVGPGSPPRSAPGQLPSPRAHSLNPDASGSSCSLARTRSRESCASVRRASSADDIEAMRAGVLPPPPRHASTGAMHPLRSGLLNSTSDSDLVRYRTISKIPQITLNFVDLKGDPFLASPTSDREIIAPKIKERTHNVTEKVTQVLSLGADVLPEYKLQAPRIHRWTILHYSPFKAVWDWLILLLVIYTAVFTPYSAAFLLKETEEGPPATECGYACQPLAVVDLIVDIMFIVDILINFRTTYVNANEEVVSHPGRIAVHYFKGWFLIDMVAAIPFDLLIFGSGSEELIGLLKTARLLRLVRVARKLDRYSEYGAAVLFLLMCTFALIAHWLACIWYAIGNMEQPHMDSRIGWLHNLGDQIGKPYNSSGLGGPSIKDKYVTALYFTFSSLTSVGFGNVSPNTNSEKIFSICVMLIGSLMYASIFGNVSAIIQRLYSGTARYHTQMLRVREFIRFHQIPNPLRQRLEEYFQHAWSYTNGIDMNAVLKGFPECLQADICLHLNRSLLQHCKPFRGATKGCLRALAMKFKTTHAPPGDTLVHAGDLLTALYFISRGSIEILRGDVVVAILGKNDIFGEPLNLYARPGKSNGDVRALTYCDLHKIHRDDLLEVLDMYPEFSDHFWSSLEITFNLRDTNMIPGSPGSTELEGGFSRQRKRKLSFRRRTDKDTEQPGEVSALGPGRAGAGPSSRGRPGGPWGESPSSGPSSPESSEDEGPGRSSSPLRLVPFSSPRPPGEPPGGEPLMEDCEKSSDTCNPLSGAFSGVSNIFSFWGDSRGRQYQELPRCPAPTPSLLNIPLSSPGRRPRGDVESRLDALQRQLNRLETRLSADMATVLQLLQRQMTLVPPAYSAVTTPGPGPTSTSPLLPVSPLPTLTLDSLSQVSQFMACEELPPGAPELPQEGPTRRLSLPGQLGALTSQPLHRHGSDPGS
The potency of the compounds of the invention in inhibiting human ERG potassium channel (hERG) tail current is assessed in a recombinant HEK293 cell line stably transfected with hERG cDNA using Rapid ICE™ (Rapid Ion Channel Electrophysiology) assay. Rapid ICE™ is an automated patch-clamp assay utilizing the PatchXpress 7000A system (Molecular Devices Corporation) or the QPatch HTX system (Sophion Bioscience A/S).
Briefly cells are cultivated for 24 to 72 hours before recordings in minimum essential medium supplemented with 10% FBS, 1% non-essential amino acids, 1% sodium pyruvate, 2 mM L-glutamine. The day of the experiment cells are detached with TrypLE and prepared to be loaded on the instrument. For PatchXpress cells are finally resuspended in 150 μl of Extracellular Buffer whereas for QPatch cells are resuspended in 7 ml Serum-Free Media containing 25 mM Hepes and Soybean trypsin inhibitor and immediately placed in the cell storage tank of the machine. The composition of the Extracellular Buffer is (mM): NaCl 137; KCl 4; CaCl2 1.8; MgCl2 1.0; D-glucose 10; N 2 hydroxyethylpiperazine-N′-2-ethanesulfonic acid (HEPES) 10; pH 7.4 with 1 M NaOH. The composition of the pipette solution is (mM): KCl 130; MgCl2 1.0; Ethylene glycol-bis(R-aminoethyl ether)-N,N,N′,N′-tetraacetic acid (EGTA) 5; MgATP 5; HEPES 10; pH 7.2 with 1 M KOH. The voltage protocol includes the following steps: step from −80 mV to −50 mV for 200 ms, +20 mV for 4.8 s, step to −50 mV for 5 s then step to the holding potential of −80 mV. Compounds of the invention are dissolved in DMSO and diluted in Extracellular Buffer to achieve final test concentrations (0.1, 1 and 10 μM) in 0.1% DMSO. The voltage protocol is run and recorded continuously during the experiment. The vehicle, corresponding to 0.1% DMSO in Extracellular Buffer, is then applied for 3 min followed by the test substance in triplicate. The standard combined exposure time is 5 min. The average of tail current amplitude values recorded from 4 sequential voltage pulses is used to calculate for each cell the effect of the test substance by calculating the residual current (% control) compared with vehicle pre-treatment. Data are reported as % inhibition for each concentration tested and IC50 values are estimated using DataXpress or QPatch software. At least two cells are tested, more if results diverge.

Test [3] has as its target T2, human dopamine transporter (DAT) (Homo sapiens, UniProt Q01959).
T2 construct: expressed in transfected cells; host or cells: CHO (hDAT-CHO), membrane preparation
Nature of the test: Scintillation Proximity Assay (SPA) competition binding, [3H]WIN-35,428, hDAT-CHO membranes.

Test [4] concerns the target T3, human serotonin transporter (SERT) (Homo sapiens, UniProt P31645).
T3 construct: expressed in transfected cells; host or cells: CHO (hSERT-CHO), membrane preparation
The test is described as follows: Scintillation Proximity Assay (SPA) competition binding, [3H]citalopram, hSERT-CHO membranes.

The mark [5] stands for this setting: read-out: pIC50 DAT (converted).

Structures can show the parent of a compound that is named as a salt. Where two headings read alike, the source gives them in different places.

T1 sequence (P23975 whole entry): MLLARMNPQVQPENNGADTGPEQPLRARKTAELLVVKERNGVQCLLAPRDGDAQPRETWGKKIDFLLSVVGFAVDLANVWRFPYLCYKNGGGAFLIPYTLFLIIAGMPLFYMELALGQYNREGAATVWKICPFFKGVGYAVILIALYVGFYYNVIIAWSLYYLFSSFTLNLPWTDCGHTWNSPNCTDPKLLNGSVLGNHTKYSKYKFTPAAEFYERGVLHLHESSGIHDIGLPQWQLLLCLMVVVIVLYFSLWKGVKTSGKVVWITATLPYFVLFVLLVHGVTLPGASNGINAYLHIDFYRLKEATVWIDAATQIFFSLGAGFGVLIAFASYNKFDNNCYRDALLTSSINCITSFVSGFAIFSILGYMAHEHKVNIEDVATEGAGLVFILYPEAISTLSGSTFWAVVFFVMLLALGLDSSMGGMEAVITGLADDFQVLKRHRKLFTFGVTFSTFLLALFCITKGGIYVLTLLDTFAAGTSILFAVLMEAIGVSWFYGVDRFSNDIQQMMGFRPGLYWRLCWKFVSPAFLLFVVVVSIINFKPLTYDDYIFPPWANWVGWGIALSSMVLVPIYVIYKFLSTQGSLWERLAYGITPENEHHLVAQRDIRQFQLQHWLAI
T3 sequence (P31645 whole entry): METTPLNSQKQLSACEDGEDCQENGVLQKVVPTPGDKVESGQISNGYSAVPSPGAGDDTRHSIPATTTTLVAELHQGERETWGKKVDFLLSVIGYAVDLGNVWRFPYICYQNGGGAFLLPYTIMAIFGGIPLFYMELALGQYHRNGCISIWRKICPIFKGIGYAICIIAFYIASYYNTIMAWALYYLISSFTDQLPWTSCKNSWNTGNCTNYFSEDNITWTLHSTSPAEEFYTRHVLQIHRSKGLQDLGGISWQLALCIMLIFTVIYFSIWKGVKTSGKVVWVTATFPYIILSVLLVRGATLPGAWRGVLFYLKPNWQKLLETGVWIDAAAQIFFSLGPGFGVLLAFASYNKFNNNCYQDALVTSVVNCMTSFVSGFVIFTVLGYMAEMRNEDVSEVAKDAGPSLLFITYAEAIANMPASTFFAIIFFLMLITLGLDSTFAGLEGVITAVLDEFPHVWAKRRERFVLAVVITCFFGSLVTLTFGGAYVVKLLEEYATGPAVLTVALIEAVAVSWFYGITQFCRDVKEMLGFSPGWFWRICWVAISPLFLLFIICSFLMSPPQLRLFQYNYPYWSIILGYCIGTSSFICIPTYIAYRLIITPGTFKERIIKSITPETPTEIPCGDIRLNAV
T2 sequence (Q01959 whole entry): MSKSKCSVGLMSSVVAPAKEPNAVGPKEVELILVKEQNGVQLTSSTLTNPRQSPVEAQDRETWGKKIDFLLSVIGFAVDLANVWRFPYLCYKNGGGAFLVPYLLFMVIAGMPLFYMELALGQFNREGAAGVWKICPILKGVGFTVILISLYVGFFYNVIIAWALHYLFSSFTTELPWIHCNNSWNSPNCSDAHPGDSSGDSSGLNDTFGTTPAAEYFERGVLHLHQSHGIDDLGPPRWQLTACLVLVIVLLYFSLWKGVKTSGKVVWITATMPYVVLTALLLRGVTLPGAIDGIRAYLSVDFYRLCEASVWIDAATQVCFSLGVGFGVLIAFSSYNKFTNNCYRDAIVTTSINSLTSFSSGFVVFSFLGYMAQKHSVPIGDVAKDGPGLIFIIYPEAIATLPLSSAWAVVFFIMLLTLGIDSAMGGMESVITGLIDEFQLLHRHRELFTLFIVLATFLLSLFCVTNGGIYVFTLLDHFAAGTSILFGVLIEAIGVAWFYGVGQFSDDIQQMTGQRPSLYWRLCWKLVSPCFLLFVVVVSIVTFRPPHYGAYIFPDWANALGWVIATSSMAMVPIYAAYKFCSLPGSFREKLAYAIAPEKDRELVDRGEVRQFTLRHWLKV

As to `CN1CCC(O)C2(CCN(C(c3ccc(F)cc3)c3ccc(F)cc3)C2)C1` (centres unmarked) [Example 4, 2-[bis(4-fluorophenyl)methyl]-7-methyl-2,7-diazaspiro[4.5]decan-10-ol], the IC50 was 18.2 µM in test [1], 1.58 µM in test [2], 0.195 µM in test [3] (setting [5]) and 18.6 µM in test [4].

For the molecule `O=C1CCNCC12CCN(C(c1ccc(F)cc1)c1ccc(F)cc1)C2` (centres unmarked) [Example 1, 2-[bis(4-fluorophenyl)methyl]-2,7-diazaspiro[4.5]decan-10-one], the IC50 in test [1] was 3.8 µM; in test [2], 2 µM; in test [3] (setting [5]), 0.129 µM; in test [4] it was 22.4 µM.

Take `FC1=CCNC[C@]12CCN(C(c1ccc(F)cc1)c1ccc(F)cc1)C2` (single isomer, unassigned) [Example 18, (5S or 5R)-2-[bis(4-fluorophenyl)methyl]-10-fluoro-2,7-diazaspiro[4.5]dec-9-ene]: the IC50 was 1.86 µM in test [1], 3.16 µM in test [2], 0.0302 µM in test [3] (pIC50 DAT) and 9.33 µM in test [4].

As to `OC1CCNCC12CCN(C(c1ccc(F)cc1)c1ccc(F)cc1)C2` (centres unmarked) [Example 3, 2-[bis(4-fluorophenyl)methyl]-2,7-diazaspiro[4.5]decan-10-ol], the IC50 was 4.47 µM in test [1], 2.51 µM in test [2], 0.0708 µM in test [3] (pIC50 DAT) and 12.9 µM in test [4].

As for `CN1CCC(=O)C2(CCN(C(c3ccc(F)cc3)c3ccc(F)cc3)C2)C1` (centres unmarked) [Example 2, 2-[bis(4-fluorophenyl)methyl]-7-methyl-2,7-diazaspiro[4.5]decan-10-one], the IC50 in test [1] was 22.4 µM; in test [2] it was 7.94 µM; in test [3] (setting [5]), 0.372 µM; in test [4], 21.9 µM.

As for `O=C1CCNC[C@@]12CCN(C(c1ccc(F)cc1)c1ccc(F)cc1)C2` (single isomer, unassigned) [Example 9, (5R or 5S)-2-[bis(4-fluorophenyl)methyl]-2,7-diazaspiro[4.5]decan-10-one dihydrochloride salt], the IC50 in test [1] was 2.4 µM; in test [2] (hERG tail current, HEK293 cells, read-out: pIC50 hERG (converted)), 5.01 µM; in test [3] (setting [5]) it was 0.263 µM; in test [4] it was 10.7 µM.

As to `ON=C1CCNCC12CCN(C(c1ccc(F)cc1)c1ccc(F)cc1)C2` (single isomer, unassigned) [Example 16, N-[(5S or 5R,10E)-2-[bis(4-fluorophenyl)methyl]-2,7-diazaspiro[4.5]decan-10-ylidene]hydroxylamine], the IC50 in test [1] was 6.31 µM; in test [2], 2.51 µM; in test [3] (pIC50 DAT) it was 0.049 µM; in test [4] it was 6.61 µM.

In the case of `Fc1ccc(C(c2ccc(F)cc2)N2CCC3(CNCCO3)C2)cc1` (centres unmarked) [Example 29, 2-[bis(4-fluorophenyl)methyl]-6-oxa-2,9-diazaspiro[4.5]decane], the IC50 in test [1] is 1.38 µM; in test [2], 6.31 µM; in test [3] (setting [5]), 0.107 µM; in test [4], 6.92 µM.
